In ChEMBL document CHEMBL1201862, “PubChem BioAssay data set” (2004):
The source made the active and inactive calls.

The compounds below were run against FAD-linked sulfhydryl oxidase ALR (Homo sapiens, UniProt P55789) (assay: ALR-catalysed DTT oxidation blockers – biochemical, H2O2 detection, luminescence, cherry-pick, dose response (AID 493248)). Conditions: not given.
FAD-linked sulfhydryl oxidase ALR, sequence (P55789 whole entry): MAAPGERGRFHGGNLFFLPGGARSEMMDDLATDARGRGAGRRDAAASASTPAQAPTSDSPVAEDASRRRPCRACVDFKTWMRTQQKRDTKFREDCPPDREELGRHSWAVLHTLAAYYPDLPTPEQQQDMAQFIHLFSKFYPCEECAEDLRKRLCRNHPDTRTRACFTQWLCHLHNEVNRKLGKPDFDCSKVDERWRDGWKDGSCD
For CCCCC(=O)NNC(=O)N1c2ccccc2Sc2ccccc21, the AC50 was 0.919 µM (active).
CCN(CC)c1ccc(/C=N/NC(=O)c2cccc(N3CCCC3=O)c2)cc1 was tested, and the AC50 was 2.14 µM (active).
COc1cc(/C=N/NC(=O)C2C3CCCCC32C)cc(Br)c1O (stereo not drawn) was tested, and the AC50 was 0.272 µM (active).

What follows are compounds tested on INS1 (assay: INS-1E survival protection against cytokine death – cell-based, luminescence, retest, dose response (AID 449756)). Conditions: Rattus norvegicus.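 Also: cell death triggered by IL-1 beta plus TNF-alpha plus IFN-gamma mixture; protective hits raise ATP signal compared with cytokine alone wells.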
Type: functional
For O=C(Nc1ncnc2c1C(c1ccccc1)c1c(ccc3ccccc13)O2)c1ccccc1 (stereo not drawn), the AC50 was 20.6 µM (active).
With COc1ccc(CCNC(=O)c2cc3c(=O)n4cccc(C)c4nc3n(Cc3ccco3)c2=N)cc1OC the AC50 was 8.24 µM (active).
Fc1ccc(-c2cc(-c3nnc4n3CCCCC4)c3ccccc3n2)cc1 was tested, and the AC50 was 11.2 µM (active).
With Cc1ccc(/N=C2\C=C(O)C(=O)c3ccccc32)c(C)c1 the AC50 was 2.06 µM (active).

These compounds were tested on H9c2 (assay: cells). Conditions: Rattus norvegicus, H9c2, Myocardium.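 Also: confirmatory concentration-response retest of ultra-high-throughput screening hits for modulation of myocardial damage; cell death induced by hydrogen peroxide oxidative stress; compound pretreatment for 60 min then peroxide exposure for 2 h; potency is for protecting the cells against peroxide damage rather than for killing them.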
Type: functional, cell-based
COc1ccc(-c2cc(C(=O)Nc3ccccc3N3CCOCC3)c3ccccc3n2)cc1OC was tested, and the IC50 was > 79 µM (inactive).
In the case of N#Cc1c(-c2ccco2)cc(-c2ccccn2)nc1N, the IC50 is reported as 14.3 µM (active).
With Cc1cccc(C(C)C)c1NC(=O)C(C)OC(=O)Cc1nnc(O)c2ccccc12 (stereo not drawn) the IC50 was 21.1 µM (active).
CCOc1cccc(-c2nn3c(-c4ccco4)nnc3s2)c1 was tested, and the IC50 was > 79 µM (inactive).
O=C(NCc1ccco1)C(c1ccccc1)N(C(=O)Cc1cccs1)c1ccccc1F (stereo not drawn) was tested, and the IC50 was > 79 µM (inactive).
With Cn1c(=O)n(CCc2ccccc2)c(=O)c2c1nc1n2CCN1Cc1ccco1 the IC50 was 10.5 µM (active).
For Cc1ccccc1N(C(=O)c1snc(C(N)=O)c1N)C(C(=O)NCc1ccccc1)c1ccc(O)cc1 (stereo not drawn), the IC50 was > 79 µM (inactive).
For CC(C)CC(C(=O)NC1CCCCC1)N(Cc1cccs1)C(=O)c1snc(C(N)=O)c1N (stereo not drawn), the IC50 was > 79 µM (inactive).
With CCN(c1ccc(NC(=O)COC(=O)c2ccc([N+](=O)[O-])o2)cc1)C(C)C the IC50 was > 79 µM (inactive).
With COc1ccccc1C(=O)NC(=O)COC(=O)Cn1[nH]c(=O)c2ccccc2c1=O the IC50 was > 79 µM (inactive).

What follows are compounds tested against T1, Corticotropin-releasing factor receptor 2/Corticotropin-releasing factor-binding protein (Homo sapiens, UniProt P24387+Q13324) (assay: Dose Response confirmation of uHTS hits for small molecule antagonists of the CRF-binding protein and CRF-R2 receptor complex.). Conditions: read-out: IC50_Mean.
T1 sequence (Q13324 whole entry): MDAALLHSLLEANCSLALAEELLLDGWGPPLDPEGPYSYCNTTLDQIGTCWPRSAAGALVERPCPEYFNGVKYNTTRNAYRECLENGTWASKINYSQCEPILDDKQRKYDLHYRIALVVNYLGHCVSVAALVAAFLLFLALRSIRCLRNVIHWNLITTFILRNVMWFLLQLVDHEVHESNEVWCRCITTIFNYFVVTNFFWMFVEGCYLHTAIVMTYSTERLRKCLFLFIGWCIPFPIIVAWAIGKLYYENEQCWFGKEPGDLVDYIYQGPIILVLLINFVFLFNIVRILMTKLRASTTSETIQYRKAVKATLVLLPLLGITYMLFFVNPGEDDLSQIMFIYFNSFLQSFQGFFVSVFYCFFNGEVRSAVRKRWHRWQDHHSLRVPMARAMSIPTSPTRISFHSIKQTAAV
T1 sequence (P24387 whole entry): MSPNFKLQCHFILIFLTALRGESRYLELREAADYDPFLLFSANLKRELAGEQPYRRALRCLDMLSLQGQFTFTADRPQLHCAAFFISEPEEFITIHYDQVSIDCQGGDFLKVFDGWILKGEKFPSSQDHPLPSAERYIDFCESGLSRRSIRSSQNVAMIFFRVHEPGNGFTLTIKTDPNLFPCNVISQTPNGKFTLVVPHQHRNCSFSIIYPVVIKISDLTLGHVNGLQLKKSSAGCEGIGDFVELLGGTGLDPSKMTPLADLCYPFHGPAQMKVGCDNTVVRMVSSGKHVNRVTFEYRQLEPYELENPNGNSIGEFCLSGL
Type: functional
With CCC1CCCCN1CCCNC(=O)c1cn(C)c2ccc(S(=O)(=O)N(C)C3CCCCC3)cc2c1=O (stereo not drawn) the IC50 was > 47.1 µM (inactive).

The compounds below were run against T1, Corticotropin-releasing factor receptor 2/Corticotropin-releasing factor-binding protein (assay: activators of CRF receptor 2 with binding protein – uHTS hits, confirmation (AID 602473)). Conditions: read-out: EC50_Mean.
Type: functional
For CCC1CCCCN1CCCNC(=O)c1cn(C)c2ccc(S(=O)(=O)N(C)C3CCCCC3)cc2c1=O (stereo not drawn), the EC50 was > 53 µM (inactive).

What follows are compounds tested against Cytochrome P450 2D6 (Homo sapiens, UniProt P10635) (assay: not given). Conditions: not given.
Cytochrome P450 2D6, sequence (P10635 whole entry): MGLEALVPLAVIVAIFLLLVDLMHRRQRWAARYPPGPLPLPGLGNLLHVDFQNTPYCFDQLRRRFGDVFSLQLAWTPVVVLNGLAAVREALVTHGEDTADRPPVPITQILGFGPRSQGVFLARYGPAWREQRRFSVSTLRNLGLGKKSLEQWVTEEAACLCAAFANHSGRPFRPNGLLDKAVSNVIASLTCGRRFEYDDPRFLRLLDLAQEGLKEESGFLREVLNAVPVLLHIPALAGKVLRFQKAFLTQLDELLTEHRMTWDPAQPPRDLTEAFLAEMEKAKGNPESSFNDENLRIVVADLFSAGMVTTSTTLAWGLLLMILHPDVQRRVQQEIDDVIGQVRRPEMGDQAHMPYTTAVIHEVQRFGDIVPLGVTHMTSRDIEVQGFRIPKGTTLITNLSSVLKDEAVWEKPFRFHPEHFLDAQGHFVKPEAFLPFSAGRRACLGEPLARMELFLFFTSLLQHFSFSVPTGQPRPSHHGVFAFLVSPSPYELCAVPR
For O=C(NCCNS(=O)(=O)c1ccccc1Cl)c1cc(OCC(F)(F)F)ccc1OCC(F)(F)F, the AC50 was 22.4 µM (inconclusive).
With COc1ccc(C(=O)N2CCC3(CC2)CCN(c2ccncc2)CC3)cc1 the AC50 was 15.8 µM (inconclusive).

The compounds below were run against T2, Cytochrome P450 1A2 (Homo sapiens, UniProt P05177) (assay: not given). Conditions: not given.
T2 sequence (P05177 whole entry): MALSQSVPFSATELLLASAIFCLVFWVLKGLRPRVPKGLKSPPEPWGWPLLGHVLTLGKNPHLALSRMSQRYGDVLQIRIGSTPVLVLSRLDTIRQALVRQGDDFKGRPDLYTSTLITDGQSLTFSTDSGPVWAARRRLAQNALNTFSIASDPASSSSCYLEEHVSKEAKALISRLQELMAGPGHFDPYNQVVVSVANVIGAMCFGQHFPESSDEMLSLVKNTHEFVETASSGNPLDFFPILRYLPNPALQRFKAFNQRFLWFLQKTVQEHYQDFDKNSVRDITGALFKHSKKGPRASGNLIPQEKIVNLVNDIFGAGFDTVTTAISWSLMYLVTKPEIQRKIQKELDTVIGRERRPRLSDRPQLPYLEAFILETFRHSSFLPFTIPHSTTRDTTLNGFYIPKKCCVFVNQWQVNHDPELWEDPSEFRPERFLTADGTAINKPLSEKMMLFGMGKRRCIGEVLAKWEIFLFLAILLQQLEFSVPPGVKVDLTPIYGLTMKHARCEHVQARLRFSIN
Cc1nc2cncnc2n(-c2ccccc2)c1=O was tested, and the AC50 was 10 µM (inconclusive).
With O=C(NCCNS(=O)(=O)c1ccccc1Cl)c1cc(OCC(F)(F)F)ccc1OCC(F)(F)F the AC50 was 31.6 µM (inconclusive).
COc1ccc(C(=O)N2CCC3(CC2)CCN(c2ccncc2)CC3)cc1 was tested, and the AC50 was 39.8 µM (inconclusive).

What follows are compounds tested against Cytochrome P450 3A4 (Homo sapiens, UniProt P08684) (assay: not given). Conditions: not given.
Cytochrome P450 3A4, sequence (P08684 whole entry): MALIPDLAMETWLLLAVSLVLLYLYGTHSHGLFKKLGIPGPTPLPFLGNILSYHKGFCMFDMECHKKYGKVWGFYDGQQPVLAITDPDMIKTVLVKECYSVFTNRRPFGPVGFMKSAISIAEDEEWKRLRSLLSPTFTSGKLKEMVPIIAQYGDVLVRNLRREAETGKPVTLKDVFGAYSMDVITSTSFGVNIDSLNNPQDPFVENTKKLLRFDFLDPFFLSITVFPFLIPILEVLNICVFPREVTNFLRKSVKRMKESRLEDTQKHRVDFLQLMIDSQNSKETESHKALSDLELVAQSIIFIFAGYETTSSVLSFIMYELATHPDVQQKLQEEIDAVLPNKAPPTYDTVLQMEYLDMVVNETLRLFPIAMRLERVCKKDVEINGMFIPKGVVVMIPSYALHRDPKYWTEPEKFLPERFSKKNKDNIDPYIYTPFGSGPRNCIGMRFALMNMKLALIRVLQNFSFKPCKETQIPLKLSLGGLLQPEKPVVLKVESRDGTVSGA
Cc1nc2cncnc2n(-c2ccccc2)c1=O was tested, and the AC50 was 12.6 µM (inconclusive).
COc1ccc(C(=O)N2CCC3(CC2)CCN(c2ccncc2)CC3)cc1 was tested, and the AC50 was 15.8 µM (inconclusive).

The compounds below were run against Cytochrome P450 2C9 (Homo sapiens, UniProt P11712) (assay: not given). Conditions: not given.
Cytochrome P450 2C9, sequence (P11712 whole entry): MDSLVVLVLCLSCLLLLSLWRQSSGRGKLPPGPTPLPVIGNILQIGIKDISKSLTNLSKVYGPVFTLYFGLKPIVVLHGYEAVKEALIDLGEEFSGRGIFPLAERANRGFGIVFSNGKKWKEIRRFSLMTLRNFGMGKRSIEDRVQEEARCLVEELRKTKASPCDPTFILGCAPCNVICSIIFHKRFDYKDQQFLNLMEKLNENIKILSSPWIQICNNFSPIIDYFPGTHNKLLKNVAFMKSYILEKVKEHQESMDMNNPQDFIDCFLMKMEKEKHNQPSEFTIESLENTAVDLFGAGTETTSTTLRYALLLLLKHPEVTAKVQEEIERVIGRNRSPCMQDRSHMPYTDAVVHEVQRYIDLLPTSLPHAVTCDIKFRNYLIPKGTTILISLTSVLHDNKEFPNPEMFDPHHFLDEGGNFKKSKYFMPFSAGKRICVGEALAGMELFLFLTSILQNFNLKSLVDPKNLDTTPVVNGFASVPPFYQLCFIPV
Cc1nc2cncnc2n(-c2ccccc2)c1=O was tested, and the AC50 was 39.8 µM (inconclusive).
With O=C(NCCNS(=O)(=O)c1ccccc1Cl)c1cc(OCC(F)(F)F)ccc1OCC(F)(F)F the AC50 was 12.6 µM (inconclusive).
